Data reported in PMC7083851, “Extended pharmacodynamic responses observed upon PROTAC-mediated degradation of RIPK2” (Communications Biology, 2020).
Where “and” joins values, the source holds several entries; their conditions need not be identical. Equal values may be shown once. Read-outs that look alike come from different tables or passages of the source.

Tests used:
[1] = Blood concentrations after subcutaneous dosing in rat PK/PD studies; assay type: in vivo
Procedure: Female CD rats (7–8 weeks old on arrival, Charles River Ltd.) were placed into groups using a randomization schedule based on body weight prior to the study start. All animals were acclimatized for a minimum of one week prior to the experiment commencing. […] PROTAC 4 was dissolved in saline with the pH adjusted to 5.0 with sodium hydroxide (1 M).

RIPK2 = test: In vivo RIPK2 degradation in rat (PBMCs isolated from blood, Western blot)
Procedure: Rat PK/PD studies: On arrival, all rats were housed in a plastic solid bottom cage in groups of 2–3 with access to food and water ad libitum and under a 12 h light–dark cycle. Male CD or Wistar Han rats (7–9 weeks old, Charles River UK Ltd.) were randomly allocated to treatment groups upon arrival. Female CD rats (7–8 weeks old on arrival, Charles River Ltd.) were placed into groups using a randomization schedule based on body weight prior to the study start. All animals were acclimatized for a minimum of one week prior to the experiment commencing.
Subcutaneous PROTAC solution formulations were prepared on the day of dosing as outlined below and filtered through a 0.22 µm Millex PVDF filter (Millipore) prior to PROTAC administration. PROTAC 4 was dissolved in saline with the pH adjusted to 5.0 with sodium hydroxide (1 M). […].
(§1) Ex vivo stimulation of rat blood with L18-MDP for PD: PPD blood samples taken prior to PROTAC administration or at fixed timepoints post PROTAC administration through the course of the study, were treated ex vivo with 100 ng/mL L18-MDP (Invivogen) or vehicle (0.1% DMSO) and incubated for 4 h. Following centrifugation, plasma was collected for cytokines analysis as detailed in cytokines assay section. Additionally, RIPK2 levels were determined in PBMCs isolated from blood and where collected, in sampled colon tissue as described in the text.
Blood was mixed with optiPREP (Sigma) and following centrifugation at 1300 × g the PBMCs layer was collected. For in vivo studies, RIPK2 levels were determined immediately via immunoblotting, whereas for in vitro studies PBMCs were treated as detailed in the in vitro treatment section.
(§2) Statistics and reproducibility: All data were represented as percentage of the control sample: DMSO treated cells for the in vitro assays and the pre-dose or vehicle sample for the in vivo experiments.
For in vivo studies, RIPK2:tubulin ratios and cytokine levels from each individual experiment were analysed either using a One-way ANOVA with Dunnet’s post-test or a two way ANOVA using GraphPad Prism 5.0.4 to determine statistical significance with 95% confidence levels.

[2] = tested on: L18-MDP-stimulated TNFα release; test: TNFα after ex vivo L18-MDP stimulation of blood from dosed rats; assay type: in vivo, rat; settings: for TNFa level after ex vivo L18-MDP stimulation vs pre-dose, individual rat: 20 mg/kg SC single dose, 7-day study
Procedure: Male CD or Wistar Han rats (7–9 weeks old, Charles River UK Ltd.) were randomly allocated to treatment groups upon arrival. Female CD rats (7–8 weeks old on arrival, Charles River Ltd.) were placed into groups using a randomization schedule based on body weight prior to the study start. All animals were acclimatized for a minimum of one week prior to the experiment commencing.
Subcutaneous PROTAC solution formulations were prepared on the day of dosing as outlined below and filtered through a 0.22 µm Millex PVDF filter (Millipore) prior to PROTAC administration. PROTAC 4 was dissolved in saline with the pH adjusted to 5.0 with sodium hydroxide (1 M).
as §1
Cytokine measurement assay: Cytokine levels were measured in rat plasma or rat PBMCs cell culture supernatants using rat V-Plex TNFα, in human plasma or human PBMCs cell culture supernatants with either TNFα tissue culture or 7-plex kit. Rat serum and tissues samples from the in vivo L18-MDP acute inflammation model were analyzed using the rat TNFα, Il-6 and IL-8 U-Plex kits. All kits provided by Meso Scale Discovery (MSD). Levels of cytokines spontaneously released from human colon biopsies cell culture supernatants were measured using Human IL-1 beta/IL-1F2 DuoSet ELISA (Bio-techne), Human IL-6 ELISA (Immunotools) and Human TNF-alpha DuoSet ELISA (Bio-techne). All samples were processed accordingly to the manufacturer’s instructions. The MSD plates were analyzed using the MSD sector imager 6000 plate reader and cytokines concentration (pg/ml) was obtained by using the MSD DISCOVERY WORKBENCH software version 4.0.12.1
as §2

[3] = 20 mg/kg SC single dose, 7-day study, 8 h
[4] = 20 mg/kg SC single dose, 7-day study, 24 h
[5] = 20 mg/kg SC single dose, 7-day study, 72 h
[6] = 20 mg/kg SC single dose, 7-day study, 168 h
[7] = 20 mg/kg SC, 14-day study, 72 h
[8] = 20 mg/kg SC, 14-day study, 240 h

CN[C@@H](C)C(=O)N[C@H](C(=O)N1CCC[C@H]1c1nc(C(=O)c2ccc(F)cc2)cs1)C1CCN(C(=O)c2cnc(N3CCN(CCOc4cc5ncnc(Nc6n[nH]c(C)c6C)c5cc4S(=O)(=O)C(C)(C)C)CC3)nc2)CC1 [PROTAC 4]
blood concentration, individual rat ([1]; 5 mg/kg SC, 14-day study, 0.25 h): 79.2 ng/mL and 80.8 ng/mL and 137 ng/mL | PK, blood concentration, individual rat ([1]; 20 mg/kg SC single dose, 7-day study, 0.25 h): 142.1 ng/mL and 262.3 ng/mL and 219.2 ng/mL and 88.3 ng/mL and 114.7 ng/mL | PK, blood concentration, individual rat ([1]; 20 mg/kg SC single dose, 7-day study, 0.5 h): 113.3 ng/mL and 220.7 ng/mL and 177.2 ng/mL and 88.4 ng/mL and 248.8 ng/mL | PK, blood concentration, individual rat ([1]; 20 mg/kg SC single dose, 7-day study, 1 h): 131.0 ng/mL and 198.9 ng/mL and 114.6 ng/mL and 195.5 ng/mL | PK, blood concentration, individual rat ([1]; 20 mg/kg SC single dose, 7-day study, 2 h): 110.9 ng/mL and 278.2 ng/mL and 204.9 ng/mL and 96.5 ng/mL and 292.6 ng/mL | PK, blood concentration, individual rat ([1]; 20 mg/kg SC single dose, 7-day study, 4 h): 211.6 ng/mL and 307.5 ng/mL and 375.8 ng/mL and 186.8 ng/mL and 240.9 ng/mL | PK, blood concentration, individual rat [1, 3]: 104.7 ng/mL and 227.5 ng/mL and 262.0 ng/mL and 193.4 ng/mL and 268.5 ng/mL | PK, blood concentration, individual rat [1, 4]: 240.6 ng/mL and 261.7 ng/mL and 347.0 ng/mL and 497.6 ng/mL and 315.9 ng/mL and 347 ng/mL | PK, blood concentration, individual rat [1, 5]: 253.7 ng/mL and 143.8 ng/mL and 111.7 ng/mL and 90.2 ng/mL and 121.5 ng/mL and 90.15 ng/mL | PK, blood concentration, individual rat [1, 6]: 15.0 ng/mL and 7.4 ng/mL and 9.6 ng/mL and 9.4 ng/mL and 6.1 ng/mL and 15.02 ng/mL and 7.438 ng/mL and 9.644 ng/mL and 9.399 ng/mL and 6.103 ng/mL | blood concentration, individual rat ([1]; 20 mg/kg SC, 14-day study, 0.25 h): 103 ng/mL and 111 ng/mL and 92.3 ng/mL and 10.6 ng/mL and 39.4 ng/mL | blood concentration, individual rat ([1]; 20 mg/kg SC, 14-day study, 0.5 h): 115 ng/mL and 140 ng/mL and 82.5 ng/mL and 99.9 ng/mL | blood concentration, individual rat ([1]; 20 mg/kg SC, 14-day study, 1 h): 173 ng/mL and 63.3 ng/mL and 90.1 ng/mL and 113 ng/mL and 45.9 ng/mL | blood concentration, individual rat ([1]; 20 mg/kg SC, 14-day study, 2 h): 141 ng/mL and 113 ng/mL and 120 ng/mL and 223 ng/mL | blood concentration, individual rat ([1]; 20 mg/kg SC, 14-day study, 4 h): 226 ng/mL and 313 ng/mL and 572 ng/mL and 294 ng/mL and 206 ng/mL | blood concentration, individual rat ([1]; 20 mg/kg SC, 14-day study, 8 h): 159 ng/mL and 180 ng/mL and 329 ng/mL and 167 ng/mL and 200 ng/mL | blood concentration, individual rat ([1]; 20 mg/kg SC, 14-day study, 24 h): 698 ng/mL and 518 ng/mL and 213 ng/mL and 503 ng/mL and 150 ng/mL | blood concentration, individual rat [1, 7]: 14.1 ng/mL and 69.4 ng/mL and 30 ng/mL and 33.4 ng/mL and 57.6 ng/mL | blood concentration, individual rat ([1]; 20 mg/kg SC, 14-day study, 168 h): 3.47 ng/mL and 10.5 ng/mL and 2.32 ng/mL and 3.82 ng/mL and 4.88 ng/mL | blood concentration, individual rat [1, 8]: 1.11 ng/mL and 2.09 ng/mL and 1.34 ng/mL | concentration at 7 days ([1]; rat, blood, sc, 20 mg/kg, rat, single 20 mg/kg SC, after 7 days, read-out: compound levels in blood at later time-points): < 10 ng/mL | concentration at 1 h ([1]; rat, blood, subcutaneous, 20 mg/kg, 20 mg/kg SC single dose, 7-day study, 1 h, read-out: PK, blood concentration, individual rat): 132 ng/mL | concentration at 0.5 h ([1]; rat, blood, subcutaneous, 20 mg/kg, 20 mg/kg SC, 14-day study, 0.5 h, read-out: blood concentration, individual rat): 126 ng/mL | concentration at 2 h ([1]; rat, blood, subcutaneous, 20 mg/kg, 20 mg/kg SC, 14-day study, 2 h, read-out: blood concentration, individual rat): 124 ng/mL | concentration at 240 h ([1]; rat, blood, subcutaneous, 20 mg/kg, 20 mg/kg SC, 14-day study, 240 h, read-out: blood concentration, individual rat): 1.68 ng/mL | concentration at […] ([1]; rat, blood, subcutaneous, 20 mg/kg, 20 mg/kg SC, 14-day study, […], read-out: blood concentration, individual rat): 1.71 ng/mL | concentration at 24 h ([1]; rat, whole blood, subcutaneous, 1 mg/kg, 1 mg/kg SC, 14-day study, 24 h, read-out: blood concentration, individual rat): 7.14 ng/mL | concentration at 72 h ([1]; rat, whole blood, subcutaneous, 1 mg/kg, 1 mg/kg SC, 14-day study, 72 h, read-out: blood concentration, individual rat): 1.67 ng/mL | concentration at 24 h ([1]; rat, whole blood, subcutaneous, 5 mg/kg, 5 mg/kg SC, 14-day study, 24 h, read-out: blood concentration, individual rat): 29.2 ng/mL | concentration at 168 h ([1]; rat, whole blood, subcutaneous, 5 mg/kg, 5 mg/kg SC, 14-day study, 168 h, read-out: blood concentration, individual rat): 4.77 ng/mL | concentration at 240 h ([1]; rat, whole blood, subcutaneous, 5 mg/kg, 5 mg/kg SC, 14-day study, 240 h, read-out: blood concentration, individual rat): 1.13 ng/mL | RIPK2 level vs pre-dose, individual rat (RIPK2; 1 mg/kg SC, 14-day study, 8 h): 71.55% and 45.26% and 58.63% and 60.59% and 55.33% | RIPK2 level vs pre-dose, individual rat (RIPK2; 1 mg/kg SC, 14-day study, 72 h): 64.81% and 59.31% and 60.99% and 66.83% and 64.49% | RIPK2 level vs pre-dose, individual rat (RIPK2; 1 mg/kg SC, 14-day study, 240 h): 112.79% and 70.63% and 104.75% and 126.83% and 102.52% | RIPK2 level vs pre-dose, individual rat (RIPK2; 5 mg/kg SC, 14-day study, 8 h): 41.85% and 45.44% and 41.77% and 41.32% and 53.21% | RIPK2 level vs pre-dose, individual rat (RIPK2; 5 mg/kg SC, 14-day study, 72 h): 34.61% and 30.18% and 38.68% and 37.78% and 36.11% | RIPK2 level vs pre-dose, individual rat (RIPK2; 5 mg/kg SC, 14-day study, 240 h): 87.11% and 99.39% and 92.18% and 103.23% and 99.62% | RIPK2 level vs pre-dose, individual rat (RIPK2; [3]): 28.87% and 26.27% and 38.47% and 28.32% and 30.61% | RIPK2 level vs pre-dose, individual rat (RIPK2; [4]): 18.69% and 14.21% and 28.44% and 16.94% and 23.48% | RIPK2 level vs pre-dose, individual rat (RIPK2; [5]): 6.86% and 4.61% and 6.88% and 8.62% and 8.55% | RIPK2 level vs pre-dose, individual rat (RIPK2; [6]): 12.52% and 6.26% and 20.35% and 12.51% and 16.81% | RIPK2 level vs pre-dose, individual rat (RIPK2; 20 mg/kg SC, 14-day study, 8 h): 37.50% and 45.03% and 47.72% and 58.85% and 77.11% | RIPK2 level vs pre-dose, individual rat (RIPK2; [7]): 13.52% and 12.63% and 25.66% and 9.20% and 12.50% | RIPK2 level vs pre-dose, individual rat (RIPK2; [8]): 60.06% and 118.48% and 58.34% and 98.90% and 86.42% | RIPK2 degradation (RIPK2; rat, 14-day study, all dose levels (1, 5, 20 mg/kg SC), 8 h): 40–60% | RIPK2 protein levels, in words (RIPK2; rat, 14-day study, each dose group, 240 h): returned to baseline levels | RIPK2 degradation (RIPK2; rat, single 20 mg/kg SC, 72 h): > 80% | RIPK2 degradation (RIPK2; rat, single 20 mg/kg SC, 168 h): > 80% | TNFa level after ex vivo L18-MDP stimulation vs pre-dose, individual rat ([2]; 8 h): 9.24% and 8.84% and 7.78% and 9.53% and 3.34% | TNFa level after ex vivo L18-MDP stimulation vs pre-dose, individual rat ([2]; 24 h): 3.87% and 3.74% and 8.65% and 6.37% and 4.55% | TNFa level after ex vivo L18-MDP stimulation vs pre-dose, individual rat ([2]; 72 h): 10.34% and 56.63% and 10.25% and 43.76% and 3.57% | TNFa level after ex vivo L18-MDP stimulation vs pre-dose, individual rat ([2]; 168 h): 12.29% and 8.70% and 24.16% and 13.36% and 15.12% | TNFα inhibition following ex vivo L18-MDP stimulation in rat blood ([2]; single 20 mg/kg SC, throughout the 7-day study): > 70%
